{"source": "patent US20240254077A1", "about": "“METHODS OF TREATING CHRONIC OBSTRUCTIVE PULMONARY DISEASE INCLUDING COMPOUNDS USEFUL THEREIN” (The Trustees of Columbia University in the City of New York, priority 2021, published 2024)", "key": {"IL-8": {"tested_on": "IL-8", "test": "IL-8 expression in CSE treated SAEC, dose response", "assay_type": "cell-based, human", "details": "5% CSE, varying doses"}, "MMP-1": {"tested_on": "MMP-1", "test": "MMP-1 expression and secretion in CSE exposed small airway epithelial cell (SAEC) cultures", "assay_type": "cell-based, human", "details": "for MMP1 expression / MMP1 induction: SAEC, 5% CSE, varying doses (dose response)", "description": "FIG. 2: Fluoxetine inhibits MMP-1 production and TLR-4 signaling in CSE exposed SAEC cultures.\n(A) Fluoxetine. (B) Derivative 2. (C) Derviative 5. SAEC cultures were treated with 5% CSE and varying doses of Fluoxetine, Derivative 2 and Derivative 5, respectively. Treatment with the derivatives decreased MMP1 induction after cigarette smoke treatment.\nThe compounds in this clinical set have all been tested and utilized in humans for various indications. These molecules were tested for their capacity to modulate MMP-1 smoke induced transcriptional activation. […] Prior work in our lab was critical in establishing MMP-1 as a destructive agent in the progression of COPD in humans. As such, we next exposed human small airway epithelial cells to cigarette smoke extract followed by treatment with fluoxetine.\nAim 1b: Determining if potential CL(s) maintain their ability to inactivate MMP1 transcription and inflammatory pathways via inhibition of TLR4 signaling in human small airway epithelial cells. For each positive hit and fluoxetine, the DRC is used to derive their respective IC50's and Hill slopes. The concentration required to achieve a 50%, 75% and 99.9% fractional effect is calculated using the formula: [Cf]=[(fraction/100-fraction) ^(1/Hill slope)]IC50. The effect of each calculated concentration on cell viability is tested in triplicate on primary human small airway epithelial cell (hSAEC) culture via MTT assay. […] The chosen concentrations are tested on SAEC cultures exposed to 5% cigarette smoke extract for 24 h to assess their effects on MMP1 and TLR4 expression via mRNA extraction to analyze transcript levels by real-time RT-PCR. Culture media is collected and MMP1 secretion assessed by ELISA (R&D Systems, MN). Protein collected for western blot is used to assess IRAK phosphorylation, a known downstream effector of TLR4 activity. In addition, PCR arrays (ThermoFisher, MA) that measure the expression of cytokines that have been implicated in the pathogenesis of COPD, their receptors and the expression of transcription factors that regulate the cellular response to oxidants and CSE exposure are used to determine the ability of each derivative to suppress inflammatory signaling in smoke exposed cells.\nSAEC cultures were treated with 5% CSE and varying doses of Fluoxetine, Derivative 2 and Derivative 5, respectively. Treatment with the derivatives decreased MMP1 induction after cigarette smoke treatment."}, "MMP1": {"tested_on": "MMP1", "test": "MMP1 concentration, fluoxetine derivatives on SAEC (FIG. 6)", "assay_type": "cell-based, human", "text": "FIG. 6: MMP1 activity—fluoexetine derivatives on SAEC. Comparison of Derivatives 1-6 on MMP1 concentration."}, "smoke exposed rabbits": {"tested_on": "smoke exposed rabbits", "details": "cigarette smoke 16 weeks, oral; for mean linear intercept (morphometric analysis): versus smoke alone", "text": "(C) Representative H&E stains for each treatment group.\nAs the next step, we observed the ability of oral duloxetine to inhibit cigarette smoke induced up-regulation of MMP1 and lung destruction in a rabbit model. Rabbits were utilized for these experiments since unlike mice they produce MMP-1. Rabbits were exposed to cigarette smoke for 16 weeks while receiving placebo or orally administered duloxetine.\nTo assess the effects of SSRIs on the cigarette smoke induced inflammatory response, we utilized smoke-exposed mice."}, "MMP1 promoter": {"tested_on": "MMP1 promoter", "test": "MMP1 promoter luciferase reporter screen in CSE-treated transfected HEK 293T cells", "assay_type": "cell-based, human", "details": "NIH clinical collection screen", "description": "(§1) These molecules were tested for their capacity to modulate MMP-1 smoke induced transcriptional activation. […] As such, we next exposed human small airway epithelial cells to cigarette smoke extract followed by treatment with fluoxetine."}, "smoke exposed mice": {"tested_on": "smoke exposed mice", "test": "Cigarette smoke exposed mice, inflammatory BALF cell counts", "assay_type": "in vivo, mouse", "details": "cigarette smoke 10 days, oral", "text": "FIG. 4: Oral fluoxetine treatment in smoke exposed mice reduces inflammatory BALF cell counts. […] (B) Representative cytospin DifQuik stains for each experimental group."}, "TLR-4": {"tested_on": "TLR-4", "test": "TLR-4 signaling (TLR-4 expression, phospho-IRAK) in CSE exposed SAEC cultures", "assay_type": "cell-based, human", "description": "as §1\nFor each positive hit and fluoxetine, the DRC is used to derive their respective IC50's and Hill slopes. The concentration required to achieve a 50%, 75% and 99.9% fractional effect is calculated using the formula: [Cf]=[(fraction/100-fraction) ^(1/Hill slope)]IC50. The effect of each calculated concentration on cell viability is tested in triplicate on primary human small airway epithelial cell (hSAEC) culture via MTT assay. […] The chosen concentrations are tested on SAEC cultures exposed to 5% cigarette smoke extract for 24 h to assess their effects on MMP1 and TLR4 expression via mRNA extraction to analyze transcript levels by real-time RT-PCR. Culture media is collected and MMP1 secretion assessed by ELISA (R&D Systems, MN). Protein collected for western blot is used to assess IRAK phosphorylation, a known downstream effector of TLR4 activity."}}, "note": "Entries after “also recorded” stand apart in the source; their conditions may differ. Like-named read-outs stand apart in the source and are kept apart here.", "data": [{"molecule": "CCNC(=O)N(C)CCC(Oc1ccc(C(F)(F)F)cc1)c1ccccc1", "note": "(stereo not shown) [Derivative 2, 3-ethyl-1-methyl-1-(3-phenyl-3-(4-(trifluoromethyl)phenoxy)propyl)urea]", "values": [{"measurement": "IL-8 expression", "setting": "IL-8", "value": "reduces IL-8 expression"}, {"measurement": "MMP1 expression / MMP1 induction", "setting": "MMP-1", "value": "reduces MMP1 expression"}, {"measurement": "MMP1 concentration", "setting": "MMP1; 5 μM", "value": "significantly decreasd MMP1 concentrations"}, {"measurement": "MMP1 concentration", "setting": "MMP1; 10 μM", "value": "significantly decreasd MMP1 concentrations"}]}, {"molecule": "CN(CCC(Oc1ccc(C(F)(F)F)cc1)c1ccccc1)S(C)(=O)=O", "note": "(stereo not shown) [Derivative 6, N-methyl-N-(3-phenyl-3-(4-(trifluoromethyl)phenoxy)propyl)methanesulfonamide]", "values": [{"measurement": "MMP1 concentration", "setting": "MMP1; 5 μM", "value": "significantly decreasd MMP1 concentrations"}, {"measurement": "MMP1 concentration", "setting": "MMP1; 10 μM", "value": "significantly decreasd MMP1 concentrations"}]}, {"molecule": "CNCC[C@H](Oc1cccc2ccccc12)c1cccs1", "note": "[Duloxetine]", "values": [{"measurement": "MMP1 in bronchoalveolar lavage fluid (ELISA)", "setting": "smoke exposed rabbits", "value": "decreases MMP1 present in the BALF"}, {"measurement": "MMP1 in bronchoalveolar lavage fluid (ELISA)", "setting": "smoke exposed rabbits; listed as duloxetine", "value": "reduced MMP1 levels"}, {"measurement": "mean linear intercept (morphometric analysis)", "setting": "smoke exposed rabbits", "value": "significantly reduced mean linear intercept"}, {"measurement": "mean linear intercept (morphometric analysis)", "setting": "smoke exposed rabbits; listed as duloxetine", "value": "decreased mean linear intercepts"}, {"measurement": "inhibition of cigarette smoke induced MMP-1 production (MMP-1 smoke induced transcriptional activation)", "setting": "MMP1 promoter", "value": "potent inhibitors"}]}, {"molecule": "CNCCC(Oc1ccc(C(F)(F)F)cc1)c1ccccc1", "note": "(stereo not shown) [Fluoxetine]", "values": [{"measurement": "MMP1 present in the media (secretion)", "setting": "MMP-1; 5% CSE exposed SAEC cultures", "value": "decreased MMP-1 expression and secretion; also recorded: decreases MMP1 present in the media"}, {"measurement": "expression of MMP1 transcript (PCR)", "setting": "MMP-1; 5% CSE exposed SAEC cultures", "value": "decreased MMP-1 expression"}, {"measurement": "expression of MMP1 transcript (PCR)", "setting": "MMP-1; 5% CSE exposed SAEC cultures, listed as fluoxetine", "value": "inhibits expression of MMP1 transcript"}, {"measurement": "inhibition of cigarette smoke induced MMP-1 production (MMP-1 smoke induced transcriptional activation)", "setting": "MMP1 promoter", "value": "potent inhibitors"}, {"measurement": "inflammatory cell counts in lung lavage fluid (BALF)", "setting": "smoke exposed mice", "value": "decreases the cell count"}, {"measurement": "inflammatory cell counts in lung lavage fluid (BALF)", "setting": "smoke exposed mice; listed as fluoxetine", "value": "decreased inflammatory cell counts"}, {"measurement": "TLR-4 expression", "setting": "TLR-4", "value": "decreased expression; also recorded: abrogates the CSE induced increase in TLR-4 expression"}, {"measurement": "phospho-IRAK (downstream effector of TLR-4)", "setting": "TLR-4", "value": "decreased expression; also recorded: abrogates"}]}, {"molecule": "CCC(=O)N(C)CCC(Oc1ccc(C(F)(F)F)cc1)c1ccccc1", "note": "(stereo not shown) [Derivative 4, N-methyl-N-(3-phenyl-3-(4-(trifluoromethyl)phenoxy)propyl)propionamide]", "values": [{"measurement": "MMP1 concentration", "setting": "MMP1; 2 μM", "value": "did not show any reduction of MMP1"}, {"measurement": "MMP1 concentration", "setting": "MMP1; 5 μM", "value": "did not show any reduction of MMP1"}, {"measurement": "MMP1 concentration", "setting": "MMP1; 10 μM", "value": "did not show any reduction of MMP1"}]}, {"molecule": "CCNC(=S)N(C)CCC(Oc1ccc(C(F)(F)F)cc1)c1ccccc1", "note": "(stereo not shown) [Derivative 3, 3-ethyl-1-methyl-1-(3-phenyl-3-(4-(trifluoromethyl)phenoxy)propyl)thiourea]", "values": [{"measurement": "MMP1 concentration", "setting": "MMP1; 2 μM", "value": "did not show any reduction of MMP1"}, {"measurement": "MMP1 concentration", "setting": "MMP1; 5 μM", "value": "did not show any reduction of MMP1"}, {"measurement": "MMP1 concentration", "setting": "MMP1; 10 μM", "value": "significant reduction of MMP1"}]}, {"molecule": "Cc1ccc(S(=O)(=O)N(C)CCC(Oc2ccc(C(F)(F)F)cc2)c2ccccc2)cc1", "note": "(stereo not shown) [Derivative 5, N,4-dimethyl-N-(3-phenyl-3-(4-(trifluoromethyl)phenoxy)propyl)benzenesulfonamide]", "values": [{"measurement": "IL-8 expression", "setting": "IL-8", "value": "reduces IL-8 expression"}, {"measurement": "MMP1 expression / MMP1 induction", "setting": "MMP-1", "value": "reduces MMP1 expression"}, {"measurement": "MMP1 concentration", "setting": "MMP1; 5 μM", "value": "significantly decreasd MMP1 concentrations"}, {"measurement": "MMP1 concentration", "setting": "MMP1; 10 μM", "value": "significantly decreasd MMP1 concentrations"}]}, {"molecule": "CCCCN(C)CCC(Oc1ccc(C(F)(F)F)cc1)c1ccccc1", "note": "(stereo not shown) [Derivative 1, N-methyl-N-(3-phenyl-3-(4-(trifluoromethyl)phenoxy)propyl)butan-1-amine]", "values": [{"measurement": "MMP1 concentration", "setting": "MMP1; 5 μM", "value": "significantly decreasd MMP1 concentrations"}, {"measurement": "MMP1 concentration", "setting": "MMP1; 10 μM", "value": "significantly decreasd MMP1 concentrations"}]}]}
